According to patent US5610174A, “Use of α1A -selective adrenoceptor agonists for the treatment of urinary incontinence” (priority 1995, dated 1997):
Where two headings read alike, the source gives them in different places.

What was measured:
human α2B adrenoceptor = biological target: T1, human α2B adrenoceptor (Homo sapiens, UniProt P18089); experiment: Radioligand binding ([3H]rauwolscine) at cloned human α2B; set-up: expressed in transfected cells
T1 sequence (P18089 1-450): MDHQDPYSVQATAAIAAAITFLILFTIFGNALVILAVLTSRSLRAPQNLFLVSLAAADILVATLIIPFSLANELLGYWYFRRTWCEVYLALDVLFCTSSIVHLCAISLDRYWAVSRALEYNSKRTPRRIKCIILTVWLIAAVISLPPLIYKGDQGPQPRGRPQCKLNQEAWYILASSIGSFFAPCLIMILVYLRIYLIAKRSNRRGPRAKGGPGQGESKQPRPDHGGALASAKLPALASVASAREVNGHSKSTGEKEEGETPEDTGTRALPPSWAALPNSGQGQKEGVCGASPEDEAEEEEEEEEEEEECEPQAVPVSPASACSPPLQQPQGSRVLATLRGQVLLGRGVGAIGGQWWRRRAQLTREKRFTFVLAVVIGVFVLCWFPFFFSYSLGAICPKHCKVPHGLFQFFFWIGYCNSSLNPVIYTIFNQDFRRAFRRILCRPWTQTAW
Protocol: To determine the affinity of compounds at the α2 receptors, LM(tk-) cell lines stably transfected with the genes encoding the α2A, α2B, and α2C receptors were used. Cell lysates were prepared as described above (see Radioligand Binding Assays), and suspended in 25 mM glycylglycine buffer (pH 7.6 at room temperature). Equilibrium competition binding assays were performed using [^3 H] rauwolscine (0.5 nM), and nonspecific binding was determined by incubation with 10 μM phentolamine. The bound radioligand was separated by filtration through GF/B filters using a cell harvester.

human α2A adrenoceptor = biological target: T2, human α2A adrenoceptor (Homo sapiens, UniProt P08913); experiment: Inhibition of forskolin stimulated adenylyl cyclase, α2A; assay type: cell-based; details: for Emax: read-out: intrinsic activity (i.a.) α2A
T2 construct: expressed in transfected cells; host or cells: LM(tk-)
T2 sequence (P08913 1-465): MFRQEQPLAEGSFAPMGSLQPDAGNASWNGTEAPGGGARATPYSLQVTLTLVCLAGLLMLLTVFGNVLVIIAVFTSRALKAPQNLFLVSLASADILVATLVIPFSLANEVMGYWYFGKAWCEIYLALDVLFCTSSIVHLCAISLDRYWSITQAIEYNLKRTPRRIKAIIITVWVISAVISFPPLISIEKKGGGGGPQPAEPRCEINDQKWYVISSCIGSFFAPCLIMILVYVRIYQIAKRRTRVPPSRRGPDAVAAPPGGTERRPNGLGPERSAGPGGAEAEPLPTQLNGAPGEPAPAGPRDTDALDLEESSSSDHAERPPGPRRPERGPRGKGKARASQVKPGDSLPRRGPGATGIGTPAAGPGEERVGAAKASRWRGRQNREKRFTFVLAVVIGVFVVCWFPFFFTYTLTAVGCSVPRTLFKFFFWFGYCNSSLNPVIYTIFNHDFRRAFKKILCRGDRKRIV
Protocol: α2 -Adrenoceptor-Mediated Inhibition of Forskolin Stimulated Adenylyl Cyclase
The agonist activity of test compounds was assayed by measuring their ability to inhibit adenylyl cyclase in cells stably transfected with each of the three cloned human α2 -adrenoceptors. LM(tk-) cells expressing the α2A - or the α2C -, as well as Y1 cells expressing the α2B -adrenoceptor were used. […] The formation of cyclic AMP was measured in cultures incubated with DMEM containing 1 mM theophylline. […] The data from concentration-response curves was fitted to a four-parameter logistic equation, by non-linear regression analysis, to determine the pEC50 and intrinsic activity.

[1] = biological target: T3, rat atrial β-adrenoceptors (Rattus norvegicus, UniProt P18090); experiment: β-Adrenoceptor activity in isolated rat right atrium; details: vs isoprenaline, up to 100 μM; for Ki: read-out: pKi β (rat atrial β-adrenoceptors) (converted)
T3 construct: Right atria were removed from rats and placed immediately into oxygenated Krebs solution; from tissue; host or cells: isolated, spontaneously beating rat right atrium
Protocol: Determination of -Adrenoceptor Activity in the Isolated Rat Right Atrium
Right atria were removed from rats and placed immediately into oxygenated Krebs solution at 37° C. The Krebs solution was replaced three times at 5 min intervals and the tissues were tensioned three times to 0.5 g. In spontaneously beating atria, a control concentration effect curve to isoprenaline was generated. β-Adrenoceptor-mediated increase in atrial rate were measured as the response. […]. The antagonist effects of the test compounds were measured using the dose-ratio method, by comparing the shift in pEC50 for isoprenaline.

human 5-HT1E receptor = biological target: T4, human 5-HT1E receptor (Homo sapiens, UniProt P28566); experiment: Radioligand binding at human 5-HT1E; details: [3H]serotonin; for Ki: read-out: pKi 5-HT1E (converted)
T4 construct: expressed in transfected cells; host or cells: LM(tk-) clonal cell line, designated 5-HT1E-7, ATCC CRL 10913 (cell lysates)
Protocol: Human Serotonin Receptors
5-HT1Dα, 5-HT1Dβ, 5-HT1E, 5-HT1F, and 5-HT7 Receptors: The cell lysates of LM(tk-) clonal cell line stably transfected with the genes encoding each of these 5-HT receptor-subtypes were prepared as described above. The cell line for the 5-HT1Dαreceptor, designated as Ltk-8-30-84, was deposited on Apr. 17, 1990, and accorded ATCC Accession No. CRL 10421. The cell for the 5-HT1Dβ receptor, designated as Ltk-11, was deposited on Apr. 17, 1990, and accorded ATCC Accession No. CRL 10422. The cell line for the 5-HT1E receptor, designated 5-HT1E -7, was deposited on Nov. 6, 1991, and accorded ATCC Accession No. CRL 10913. The cell line for the 5-HT1F receptor, designated L-5-HT1F, was deposited on Dec. 27, 1991, and accorded ATCC Accession No. CRL 10957. The cell line for the 5-HT7 receptor, designated as L-5-HT-4B, was deposited on Oct. 20, 1992, and accorded ATCC Accession No. CRL 11166. These preparations were suspended in 50 mM Tris-HCl buffer (pH 7.4 at 37° C.) containing 10 mM MgCl2, 0.2 mM EDTA, 10 μM pargyline, and 0.1% ascorbate. […] Nonspecific binding was determined in the presence of 10 μM serotonin. The bound radioligand was separated by filtration through GF/B filters using a cell harvester.

T3 sequence (P18090 whole entry): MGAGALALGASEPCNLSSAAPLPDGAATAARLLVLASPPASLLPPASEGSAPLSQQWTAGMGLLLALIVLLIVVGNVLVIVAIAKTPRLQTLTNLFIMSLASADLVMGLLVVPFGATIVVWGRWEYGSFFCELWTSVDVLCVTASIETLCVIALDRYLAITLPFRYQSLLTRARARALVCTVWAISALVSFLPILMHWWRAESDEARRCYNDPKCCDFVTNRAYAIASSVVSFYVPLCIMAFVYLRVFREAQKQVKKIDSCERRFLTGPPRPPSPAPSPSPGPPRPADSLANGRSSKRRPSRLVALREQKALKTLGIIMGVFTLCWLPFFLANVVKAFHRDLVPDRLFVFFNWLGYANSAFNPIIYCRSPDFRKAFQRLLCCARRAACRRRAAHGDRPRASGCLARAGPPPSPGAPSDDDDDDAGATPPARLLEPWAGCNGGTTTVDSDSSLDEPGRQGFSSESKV
T4 sequence (P28566 whole entry): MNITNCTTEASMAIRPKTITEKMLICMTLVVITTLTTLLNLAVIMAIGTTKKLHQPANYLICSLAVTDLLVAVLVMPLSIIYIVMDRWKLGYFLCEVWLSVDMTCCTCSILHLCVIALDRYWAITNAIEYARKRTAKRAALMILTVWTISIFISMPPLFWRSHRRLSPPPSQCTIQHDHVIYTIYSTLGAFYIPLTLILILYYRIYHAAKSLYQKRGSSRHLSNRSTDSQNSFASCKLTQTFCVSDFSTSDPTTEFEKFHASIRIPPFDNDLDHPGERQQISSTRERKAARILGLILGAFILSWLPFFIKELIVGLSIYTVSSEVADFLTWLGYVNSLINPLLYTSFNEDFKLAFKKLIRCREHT

Row | SMILES | Ki (human α2B adrenoceptor) [nM] | EC50 (human α2A adrenoceptor) [nM] | Emax (human α2A adrenoceptor) [%] | Ki (human α2B adrenoceptor; Table 3, agonists, read-out: pKi α2B (converted)) [nM] | Ki [1] [nM] | Ki (human 5-HT1E receptor) [nM] | EC50 (human α2A adrenoceptor; agonist, inhibition of forskolin stimulated adenylyl cyclase, read-out: pEC50 α2A (converted)) [nM] | pKi β (rat atrial β-adrenoceptors) [1] | pEC50 α2A (human α2A adrenoceptor; agonist, inhibition of forskolin stimulated adenylyl cyclase) | pKi 5-HT1E (human 5-HT1E receptor)
1 | C[C@H](N)[C@H](O)c1ccccc1 [(-)-norephedrine] | 251 | 7.94 | 50 |  |  |  |  |  |  | 
2 | CN[C@@H](C)[C@H](O)c1ccccc1 [(-)-ephedrine] | 2510 | 251 | 30 |  |  |  |  |  |  | 
3 | CS(=O)(=O)Nc1c(O)ccc2c1CCCC2C1=NCCN1 (racemic) [Compound A-61603, (±)-N-[5-(4,5-Dihydro-1H-imidazol-2-yl)-2-hydroxy-5,6,7,8-tetra-hydronaphthalen-1-yl]methanesulfonamide] |  |  |  | 316 | > 100000 | 5010 |  |  |  | 
4 | COc1ccc(SC)c2c1C[C@@H]1[C@@H](C2)OCCN1C (relative stereo) [SDZ NVI-085, (±)-trans-4-Methyl-6-methoxy-9-thiomethoxy-3,4,4a, 5,10,10a-hexahydro-2H-naphtho[2,3-b][1,4]oxazine] | 63.1 |  | 0 |  | > 100000 | 2000 | > 100000 |  |  | 
5 | COc1ccc(OC)c(C(O)CN)c1 (racemic) [ST-1059, (±)-2-Amino-1-(2, 5 dimethoxyphenyl) ethanol] | 1580 | 2510 | 20 |  |  |  |  |  |  | 
6 | CNCCc1ccc(O)c(NS(C)(=O)=O)c1 [SK&F 102652] |  |  | 0 |  |  |  |  | < 4 | < 4.0 | 5.3
